We go through 16 compounds from US20230167118A1, “DEGRADATION OF BRUTON'S TYROSINE KINASE (BTK) BY CONJUGATION OF BTK INIDBITORS WITH E3 LIGASE LIGAND AND METHODS OF USE” (BEIGENE, LTD., priority 2020, published 2023).

Counter-ions that a name gives are not always drawn. Bounds are passed on as bounds.

For assay [1], the target named is T1, BTK (Homo sapiens, UniProt Q06187).
T1 construct: High control=Cell group with added DMSO and without compound, indicating microplate readings without BTK degradation; endogenous in cells; host or cells: TMD-8 cells
T1 sequence (Q06187 whole entry): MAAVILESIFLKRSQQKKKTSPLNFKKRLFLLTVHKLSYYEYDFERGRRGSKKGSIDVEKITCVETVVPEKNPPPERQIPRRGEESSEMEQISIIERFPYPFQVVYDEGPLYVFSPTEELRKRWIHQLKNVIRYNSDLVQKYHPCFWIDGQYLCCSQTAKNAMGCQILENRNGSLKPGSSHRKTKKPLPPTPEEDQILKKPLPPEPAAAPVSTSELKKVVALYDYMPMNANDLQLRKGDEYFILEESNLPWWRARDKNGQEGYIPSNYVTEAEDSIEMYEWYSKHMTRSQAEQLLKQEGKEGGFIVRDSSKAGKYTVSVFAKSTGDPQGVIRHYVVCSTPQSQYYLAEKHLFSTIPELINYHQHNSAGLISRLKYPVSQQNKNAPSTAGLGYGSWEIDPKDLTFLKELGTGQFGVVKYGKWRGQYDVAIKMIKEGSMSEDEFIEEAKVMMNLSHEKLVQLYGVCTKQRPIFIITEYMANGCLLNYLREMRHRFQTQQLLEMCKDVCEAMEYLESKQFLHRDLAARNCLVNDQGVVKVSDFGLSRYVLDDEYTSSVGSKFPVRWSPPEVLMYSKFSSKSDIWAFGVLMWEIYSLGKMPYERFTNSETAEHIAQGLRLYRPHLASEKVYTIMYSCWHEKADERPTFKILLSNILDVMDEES
As to the kind of experiment: Cell Degradation: BTK degradation in TMD-8 cells, HTRF assay. The class given is cell-based. The note with it: 6 h treatment, IC50 (DC50) of BTK degradation. A digest of the protocol: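 BTK levels read by HTRF (665 vs 620 nm) in lysates of TMD-8 cells after 6 h compound exposure (eight doses, 6-fold steps, 0.2% DMSO). Percent degradation relative to controls; four-parameter curve fitting gave DC50, with Dmax the top degradation.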

In assay [2] the test system is HEK-293 cells. As to the kind of experiment: HEK-293 Cytotoxicity Assay (CellTiter-Glo). The class given is cell-based. The note with it: Homo sapiens, HEK293, 72 h incubation, CellTiter-Glo luminescence. The essentials: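 Four-parameter fit of % inhibition gives IC50, from CellTiter-Glo luminescent viability read-out. Cells exposed for 72 h to an 8-point, 4-fold series at 0.2% DMSO.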

Turning to `C[C@@H](NC(=O)c1noc(C(C)(C)C)n1)c1ccc(-c2ncnc3[nH]c(-c4ccc(N5CCN(CC6CCN(c7ccc(N8CCC(=O)NC8=O)cc7)CC6)CC5)cc4)cc23)cc1F` [Example 31, (R)-5-(tert-butyl)-N-(1-(4-(6-(4-(4-((1-(4-(2,4-dioxotetrahydropyrimidin-1(2H)-yl)phenyl)piperidin-4-yl)methyl)piperazin-1-yl)phenyl)-7H-pyrrolo[2,3-d]pyrimidin-4-yl)-2-fluorophenyl)ethyl)-1,2,4-oxadiazole-3-carboxamide], the 50% degradation concentration (DC50) in assay [1] worked out at 1.5 nM. Besides, in assay [2], the IC50 is more than 10 µM.
The compound `CC(C)(C)c1noc(C(=O)NCc2ccc(-c3ncnc4[nH]c(-c5ccc(N6CCN(CC7CCN(c8ccc(N9CCC(=O)NC9=O)cc8)CC7)CC6)cc5)cc34)cc2F)n1` [Example 32, 3-(tert-butyl)-N-(4-(6-(4-(4-((1-(4-(2,4-dioxotetrahydropyrimidin-1(2H)-yl)phenyl)piperidin-4-yl)methyl)piperazin-1-yl)phenyl)-7H-pyrrolo[2,3-d]pyrimidin-4-yl)-2-fluorobenzyl)-1,2,4-oxadiazole-5-carboxamide] had a DC50 in assay [1] of 1.7 nM. In assay [2], this compound yielded an IC50 of more than 10 µM.
Turning to `C[C@@H](NC(=O)c1nc(C(C)(C)C)no1)c1ccc(-c2ncnc3[nH]c(-c4ccc(N5CCN(CC6CCN(c7ccc(N8CCC(=O)NC8=O)cc7)CC6)CC5)nc4)cc23)cc1F` [Example 33, (R)-3-(tert-butyl)-N-(1-(4-(6-(6-(4-((1-(4-(2,4-dioxotetrahydropyrimidin-1(2H)-yl)phenyl)piperidin-4-yl)methyl)piperazin-1-yl)pyridin-3-yl)-7H-pyrrolo[2,3-d]pyrimidin-4-yl)-2-fluorophenyl)ethyl)-1,2,4-oxadiazole-5-carboxamide], it took 1.7 nM to reach half-maximal degradation in assay [1] (DC50). Further, in assay [2], the concentration for half-maximal inhibition (IC50) was more than 10 µM.
Consider `C[C@@H](NC(=O)c1noc(C(C)(C)C)n1)c1ccc(-c2ncnc3[nH]c(-c4ccc(N5CCN(CC6CCN(c7ccc(N8CCC(=O)NC8=O)cc7)CC6)CC5)nc4)cc23)cc1F` [Example 34, (R)-5-(tert-butyl)-N-(1-(4-(6-(6-(4-((1-(4-(2,4-dioxotetrahydropyrimidin-1(2H)-yl)phenyl)piperidin-4-yl)methyl)piperazin-1-yl)pyridin-3-yl)-7H-pyrrolo[2,3-d]pyrimidin-4-yl)-2-fluorophenyl)ethyl)-1,2,4-oxadiazole-3-carboxamide], for which half-maximal degradation in assay [1] (DC50) was put at 1.2 nM. For the same compound, the concentration for half-maximal inhibition (IC50) in assay [2] is more than 10 µM.
In the same order, the values of `Cc1cc(-c2ncnc3[nH]c(-c4ccc(N5CCN(CC6CCN(c7ccc(N8CCC(=O)NC8=O)cc7)CC6)CC5)cc4)cc23)ccc1CNC(=O)c1cnn(C(C)(C)C)c1` [Example 35, 1-(tert-butyl)-N-(4-(6-(4-(4-((1-(4-(2,4-dioxotetrahydropyrimidin-1(2H)-yl)phenyl)piperidin-4-yl)methyl)piperazin-1-yl)phenyl)-7H-pyrrolo[2,3-d]pyrimidin-4-yl)-2-methylbenzyl)-1H-pyrazole-4-carboxamide] are 0.63 nM and more than 10 µM.
`Cc1cc(CNC(=O)c2ccc(C(C)(C)O)cc2F)c(F)cc1-c1ncnc2[nH]c(-c3ccc(C4CCN(CC5CCN(c6ccc(N7CCC(=O)NC7=O)cc6)CC5)CC4)cc3)cc12` [Example 36, N-(4-(6-(4-(1-((1-(4-(2,4-dioxotetrahydropyrimidin-1(2H)-yl)phenyl)piperidin-4-yl)methyl)piperidin-4-yl)phenyl)-7H-pyrrolo[2,3-d]pyrimidin-4-yl)-2-fluoro-5-methylbenzyl)-2-fluoro-4-(2-hydroxypropan-2-yl)benzamide] had a DC50 in assay [1] of 1.5 nM. The same compound had a half-maximal inhibitory concentration (IC50) in assay [2] of more than 10 µM.
`Cc1cc(-c2ncnc3[nH]c(-c4ccc(N5CCN(CC6CCN(c7ccc(N8CCC(=O)NC8=O)cc7)CC6)CC5)cc4)cc23)ccc1CNC(=O)c1cn(C(C)(C)C)nn1` [Example 37, 1-(tert-butyl)-N-(4-(6-(4-(4-((1-(4-(2,4-dioxotetrahydropyrimidin-1(2H)-yl)phenyl)piperidin-4-yl)methyl)piperazin-1-yl)phenyl)-7H-pyrrolo[2,3-d]pyrimidin-4-yl)-2-methylbenzyl)-1H-1,2,3-triazole-4-carboxamide]: half-maximal degradation in assay [1] (DC50) was put at 1.2 nM. In assay [2], this compound yielded a half-inhibitory concentration (IC50) of more than 10 µM.
On the same counts, the results for `Cc1cc(-c2ncnc3[nH]c(-c4ccc(N5CCN(CC6CCN(c7ccc(N8CCC(=O)NC8=O)cc7)CC6)CC5)c(F)c4)cc23)ccc1[C@@H](C)NC(=O)c1nc(C(C)(C)C)no1` [Example 38, (R)-3-(tert-butyl)-N-(1-(4-(6-(4-(4-((1-(4-(2,4-dioxotetrahydropyrimidin-1(2H)-yl)phenyl)piperidin-4-yl)methyl)piperazin-1-yl)-3-fluorophenyl)-7H-pyrrolo[2,3-d]pyrimidin-4-yl)-2-methylphenyl)ethyl)-1,2,4-oxadiazole-5-carboxamide, Formate] are 2.1 nM and more than 10 µM.
`Cc1cc(-c2ncnc3[nH]c(-c4ccc(C5CCN(CC6CCN(c7ccc(N8CCC(=O)NC8=O)cc7F)CC6)CC5)cc4)cc23)ccc1CNC(=O)c1nc(C(C)(C)C)no1` [Example 39, 3-(tert-butyl)-N-(4-(6-(4-(1-((1-(4-(2,4-dioxotetrahydropyrimidin-1(2H)-yl)-2-fluorophenyl)piperidin-4-yl)methyl)piperidin-4-yl)phenyl)-7H-pyrrolo[2,3-d]pyrimidin-4-yl)-2-methylbenzyl)-1,2,4-oxadiazole-5-carboxamide Formate]: it took 1.1 nM to reach half-maximal degradation in assay [1] (DC50). The IC50 in assay [2] is more than 10 µM.
`Cc1cc(-c2ncnc3[nH]c(-c4ccc(C5CCN(CC6CCN(c7ccc(N8CCC(=O)NC8=O)cc7)CC6)CC5)cc4)cc23)ccc1CNC(=O)c1cn(C(C)(C)C)nn1` [Example 40, 1-(tert-butyl)-N-(4-(6-(4-(1-((1-(4-(2,4-dioxotetrahydropyrimidin-1(2H)-yl)phenyl)piperidin-4-yl)methyl)piperidin-4-yl)phenyl)-7H-pyrrolo[2,3-d]pyrimidin-4-yl)-2-methylbenzyl)-1H-1,2,3-triazole-4-carboxamide]: in assay [1], it took 0.63 nM to reach half-maximal degradation (DC50). For the same compound, the 50% inhibitory concentration (IC50) in assay [2] was more than 10 µM.
In the case of `Cc1cc(-c2ncnc3[nH]c(-c4ccc(N5CCN(CC6CCN(c7ccc(N8CCC(=O)NC8=O)cc7)CC6)CC5)cc4)cc23)ccc1[C@@H](C)NC(=O)c1noc(C(C)(C)C)n1` [Example 41, (R)-5-(tert-butyl)-N-(1-(4-(6-(4-(4-((1-(4-(2,4-dioxotetrahydropyrimidin-1(2H)-yl)phenyl)piperidin-4-yl)methyl)piperazin-1-yl)phenyl)-7H-pyrrolo[2,3-d]pyrimidin-4-yl)-2-methylphenyl)ethyl)-1,2,4-oxadiazole-3-carboxamide], in assay [1], it took 1.3 nM to reach half-maximal degradation (DC50). This compound also yielded an IC50 in assay [2] of more than 10 µM.
In the same order, the values of `CC(C)(C)c1noc(C(=O)NCc2ccc(-c3ncnc4[nH]c(-c5ccc(N6CCN(CC7CCN(c8ccc(N9CCC(=O)NC9=O)cc8)CC7)CC6)nc5)cc34)cc2F)n1` [Example 42, 3-(tert-butyl)-N-(4-(6-(6-(4-((1-(4-(2,4-dioxotetrahydropyrimidin-1(2H)-yl)phenyl)piperidin-4-yl)methyl)piperazin-1-yl)pyridin-3-yl)-7H-pyrrolo[2,3-d]pyrimidin-4-yl)-2-fluorobenzyl)-1,2,4-oxadiazole-5-carboxamide] are 0.51 nM and more than 10 µM.
Compound `Cc1cc(-c2ncnc3[nH]c(-c4ccc(N5CCN(CC6CCN(c7cc(F)ccc7N7CCC(=O)NC7=O)CC6)CC5)cc4)cc23)ccc1[C@@H](C)NC(=O)c1nc(C(C)(C)C)no1` [Example 43, (R)-3-(tert-butyl)-N-(1-(4-(6-(4-(4-((1-(2-(2,4-dioxotetrahydropyrimidin-1(2H)-yl)-5-fluorophenyl)piperidin-4-yl)methyl)piperazin-1-yl)phenyl)-7H-pyrrolo[2,3-d]pyrimidin-4-yl)-2-methylphenyl)ethyl)-1,2,4-oxadiazole-5-carboxamide] had a DC50 in assay [1] of more than 2000 nM. The compound also had an IC50 in assay [2] of more than 10 µM.
Regarding `Cc1cc(-c2ncnc3[nH]c(-c4ccc(N5CCN(CC6CCN(c7ccc(N8CCC(=O)NC8=O)c(C)c7)CC6)CC5)cc4)cc23)ccc1[C@@H](C)NC(=O)c1nc(C(C)(C)C)no1` [Example 44, (R)-3-(tert-butyl)-N-(1-(4-(6-(4-(4-((1-(4-(2,4-dioxotetrahydropyrimidin-1(2H)-yl)-3-methylphenyl)piperidin-4-yl)methyl)piperazin-1-yl)phenyl)-7H-pyrrolo[2,3-d]pyrimidin-4-yl)-2-methylphenyl)ethyl)-12,4-oxadiazole-5-carboxamide], the DC50 in assay [1] is 1.2 nM. Moreover, the half-inhibitory concentration (IC50) in assay [2] is more than 10 µM.
Take `COc1cc(N2CCC(CN3CCN(c4ccc(-c5cc6c(-c7ccc([C@@H](C)NC(=O)c8nc(C(C)(C)C)no8)c(C)c7)ncnc6[nH]5)cc4)CC3)CC2)ccc1N1CCC(=O)NC1=O` [Example 45, (R)-3-(tert-butyl)-N-(1-(4-(6-(4-(4-((1-(4-(2,4-dioxotetrahydropyrimidin-1(2H)-yl)-3-methoxyphenyl)piperidin-4-yl)methyl)piperazin-1-yl)phenyl)-7H-pyrrolo[2,3-d]pyrimidin-4-yl)-2-methylphenyl)ethyl)-1,2,4-oxadiazole-5-carboxamide]: in assay [1], the DC50 amounted to 1.8 nM. In assay [2], this compound gave a half-inhibitory concentration (IC50) of more than 10 µM.
With `Cc1cc(-c2ncnc3[nH]c(-c4ccc(N5CCN(CC6CCN(c7ccc(N8CCC(=O)NC8=O)cc7)CC6)CC5)cc4)cc23)ccc1CNC(=O)c1csc(C(C)(C)C)n1` [Example 46, 2-(tert-butyl)-N-(4-(6-(4-(4-((1-(4-(2,4-dioxotetrahydropyrimidin-1(2H)-yl)phenyl)piperidin-4-yl)methyl)piperazin-1-yl)phenyl)-7H-pyrrolo[2,3-d]pyrimidin-4-yl)-2-methylbenzyl)thiazole-4-carboxamide], in assay [1], half-maximal degradation (DC50) was put at 5.3 nM. Besides, the concentration for half-maximal inhibition (IC50) in assay [2] was more than 10 µM.
